Several values for one entry are separate records, joined by “and”; a condition that tells them apart may be missing. Equal values may be shown once. Read-outs that look alike come from different tables or passages of the source.
Experiments:
THP-1 cells = assay: LPS stimulated cytokine production in THP-1 cells with citrulline; type: cell-based, human; settings: 0.3 mM to 9 mM; 300 ng/ml LPS; 24 hours
Experimental: Citrulline was purchased from Sigma-Aldrich (St. Louis, Mo.). THP1-Dual™ cells were purchased from Invivogen (San Diego, Calif.). Cells were cultured following the manufacturer's instruction, as described in EXAMPLE 11. For treatment, 0.3 mM to 9 mM of citrulline were first added to the culture medium. […] After 24 hours of treatment, media was collected and analyzed for cytokine production using 9-plex kit (Meso Scale Diagnostics Rockville, Md.).

P. gingivalis LPS 1690 = type: biochemical
Experimental: (§1) The Limulus Amebocyte Lysate Assay (LAL) is an assay to determine the total amount of lipopolysaccharide (LPS) in the sample tested (Pierce LAL Chromogenic Endotoxin Quantitation Kit, ThermoFischer Scientific, Waltham, Mass.). The assay was performed following manufacturer's instruction. Ninety-six-well microplates were first equilibrated in a heating block for 10 min at 37° C. Fifty μl each of standard or sample was dispensed into the microplate wells and incubated with the plate covered for 5 min at 37° C. Then 50 μl LAL was added to each well.
(§2) Plates were shaken gently and incubated for 10 min at 37° C. 100 μl of chromogenic substrate was added and incubated for 6 min at 37° C.
(§3) The Thermo Scientific Pierce LAL Chromogenic Endotoxin Quantitation Kit is a quantitative endpoint assay for the detection of LPS, which catalyzes the activation of a proenzyme in the modified Limulus Amebocyte Lysate (LAL). The activated proenzyme then splits p-Nitroaniline (pNA) from the colorless substrate, Ac-Ile-Glu-Ala-Arg-pNA. […] Then 50 μl LAL was added to each well. Plates were shaken gently and incubated for 10 min at 37° C. 100 μl of chromogenic substrate was added and incubated for 6 min at 37° C.

E. coli LPS [1] = type: biochemical
Experimental: as §1, §2, §3

TLR2 = molecular target: T1, TLR2 (Homo sapiens, UniProt O60603); type: cell-based; settings: stannous 1000 uM; P. gingivalis LPS
T1 construct: host or cells: human HEK 293T cells
Source text: The cell line is named here as TLR2-SEAP. The reporter gene encodes a secreted enzyme, called embryonic alkaline phosphatase or SEAP. The SEAP reporter is placed under the control of the interferon-β minimal promoter fused to five NFkB and AP-1-binding sites. Furthermore, a CD14 co-receptor gene was transfected into the reporter gene cells expressing TLR2, as CD14 has been identified as a co-receptor for TLR2 ligands to enhance the TLR response. The CD14 co-receptor is needed to transfer LTA to TLR2 receptors. The recombinant TLR2 binds its ligand, or distinct pathogen-associated molecule, initiates a chain of responses, leading to recruitment of NFkB and API transcription factors to the reporter gene promoter, which induce expression of SEAP.
For treatment with LTA, wells of a 96-well plate were seeded with 10,000 cells/well in 100 μL of growth medium. […] On day 4, medium (100 μL) was changed to DMEM medium without fetal calf serum. […] Samples were taken 24 hours later, following addition of samples. Expression of the reporter gene (SEAP) was quantified with a commercially available kit (SEAP Reporter Gene Assay of Cayman Chemical Co., Ann Arbor, Mich.).

NFkB-SEAP reporter gene = assay: THP1-Dual reporter cells, NFkB-SEAP; type: cell-based, human; settings: dose dependent
Source text: (§4) THP1 NFkB-SEAP and IRF-Lucia™ Reporter Monocytes were purchased from Invivogen, San Diego, Calif. THP1-Dual cells were derived from the human THP-1 monocyte cell line by stable integration of two inducible reporter constructs. THP1-Dual cells feature the Lucia gene under the control of an ISG54 (interferon-stimulated gene) minimal promoter in conjunction with five interferon-stimulated response elements. THP1-Dual cells also express a SEAP reporter gene driven by an IFN-b minimal promoter fused to five copies of the NF-kB consensus transcriptional response element and three copies of the c-Rel binding site. As a result, THP1-Dual cells allow the simultaneous study of the NFkB pathway, by monitoring the activity of SEAP, and the interferon regulatory factor (IRF) pathway, by assessing the activity of Lucia (IRF-Luc). Both reporter proteins are readily measurable in the cell culture supernatant.
(§5) Cells were passed every 3 to 4 days by inoculating 300,000-500,000 cells/ml into a fresh T75 flask with 15 ml of fresh growth medium. […] After incubation for 18 hours at 37° C. and 5% CO2, secreted luciferase and SEAP were quantified with commercially available assay kits (QUANTI-Luc of Invivogen, San Diego, Calif. for luciferase; SEAP Reporter Gene Assay of Cayman Chemical Co., Ann Arbor, Mich. for SEAP).

[2] = tested on: IRF-luciferase reporter gene; assay: THP1-Dual reporter cells, IRF-Lucia luciferase; type: cell-based, human
Source text: as §4, §5

human primary monocytes = assay: LPS-stimulated cytokine production in human primary monocytes; type: cell-based
Experimental: The primary human monocytes were purchased from Astarte Biologics (Bothell, Wash.). […] The medium was harvested at 24 hours after adding LPS and SnF2, and analyzed for proinflammatory cytokines in a kit following manufacturer's instruction (Meso Scale Diagnostics, Rockville, Md.).

E. coli LPS [3] = tested on: E. coli LPS
Experimental: 0.7 ul of the sample solution was spotted on a MALDI plate, air-dried, and analyzed in negative ion mode using a MALDI-TOF/TOF 4800 plus system (AB-Sciex, Framingham, Mass., USA). Typical data acquisition uses mass scan range 500-3000 Da and a laser power of 4500. Data was collected in an automated fashion using random sampling over the sample spot with 250 shots per subspectrum and a total of 2500 shots per spectrum.

TLR4 [4] = molecular target: T2, TLR4 (Homo sapiens, UniProt O00206+Q9Y6Y9); type: cell-based; set-up: host or cells: human HEK 293T cells; settings: for reduction of P. gingivalis LPS activation on the TLR4 reporter system: P. gingivalis LPS 500 ng/ml
Target sequence in this assay (O00206 24-839): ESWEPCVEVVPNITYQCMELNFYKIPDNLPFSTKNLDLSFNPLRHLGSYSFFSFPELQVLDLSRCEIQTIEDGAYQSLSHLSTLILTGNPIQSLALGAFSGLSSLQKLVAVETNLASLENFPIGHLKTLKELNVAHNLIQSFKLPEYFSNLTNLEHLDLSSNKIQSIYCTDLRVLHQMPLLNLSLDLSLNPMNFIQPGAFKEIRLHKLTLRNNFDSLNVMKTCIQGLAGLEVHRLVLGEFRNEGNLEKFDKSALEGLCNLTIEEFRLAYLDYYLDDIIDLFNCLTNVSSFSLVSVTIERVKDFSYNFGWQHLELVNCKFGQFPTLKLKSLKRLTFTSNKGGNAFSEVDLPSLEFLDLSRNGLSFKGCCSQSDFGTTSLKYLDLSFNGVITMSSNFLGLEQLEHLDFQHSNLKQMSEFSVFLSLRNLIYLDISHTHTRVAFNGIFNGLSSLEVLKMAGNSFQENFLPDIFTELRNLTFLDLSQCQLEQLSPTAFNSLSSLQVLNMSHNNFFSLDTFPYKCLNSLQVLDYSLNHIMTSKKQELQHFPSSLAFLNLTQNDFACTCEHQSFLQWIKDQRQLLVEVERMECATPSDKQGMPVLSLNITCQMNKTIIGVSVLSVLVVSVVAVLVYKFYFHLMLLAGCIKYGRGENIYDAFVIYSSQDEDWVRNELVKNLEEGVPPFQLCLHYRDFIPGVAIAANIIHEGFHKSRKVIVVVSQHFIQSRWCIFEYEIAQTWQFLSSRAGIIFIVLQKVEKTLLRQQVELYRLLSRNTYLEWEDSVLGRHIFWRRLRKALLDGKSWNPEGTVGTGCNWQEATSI
Target sequence in this assay (Q9Y6Y9 17-160 limits assumed): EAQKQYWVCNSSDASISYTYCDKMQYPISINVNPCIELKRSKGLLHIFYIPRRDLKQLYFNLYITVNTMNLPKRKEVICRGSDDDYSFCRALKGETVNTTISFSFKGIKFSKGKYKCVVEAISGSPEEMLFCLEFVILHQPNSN
Source text: The cell line is named here as TLR4-SEAP. The reporter gene encodes a secreted enzyme, called embryonic alkaline phosphatase or SEAP. The SEAP reporter is placed under the control of an IL-12 p40 minimal promoter fused to five NF-κB and AP-1-binding sites. Furthermore, the TLR4-SEAP cell line also contains a CD14 co-receptor gene, which is needed to transfer LPS to TLR4 receptors. The recombinant TLR binds its ligand, or distinct pathogen-associated molecule, initiates a chain of responses, leading to recruitment of NFkB and API transcription factors to the reporter gene promoter, which induce expression of SEAP.
For treatment, wells of a 96-well plate were seeded with 10,000 cells/well in 100 μL of growth medium. […] On day 4, medium was changed to assay medium (90 μl), which is the DMEM medium without fetal calf serum. […] 10 μl of the bacteria, LPS and culture medium of bacterial growth were added to the TLR4-SEAP cells. Samples were taken 24 hours later, following addition of LPS, bacteria, and culture medium. Expression of the reporter gene (SEAP) was quantified with a commercially available kit (SEAP Reporter Gene Assay of Cayman Chemical Co., Ann Arbor, Mich.).
EC50 was calculated using GraphPad Prism software (GraphPad Software, La Jolla, Calif.).
Tests were conducted to understand whether stannous fluoride could reduce LPS's ability to trigger proinflammatory responses in host cells.

TLR4 [5] = molecular target: T2, TLR4; assay: cell-based; type: cell-based; set-up: host or cells: HEK-Blue-hTLR4 (HEK 293T)
Target sequence in this assay (O00206 24-839): as the sequence (O00206 24-839) above
Target sequence in this assay (Q9Y6Y9 17-160): as the sequence (Q9Y6Y9 17-160 limits assumed) above
Experimental: Stannous fluoride, Cetylpyridium chloride (CPC) and Triclosan were purchased from Sigma-Aldrich, St. Louis, Mo. […] The growth medium: DMEM, with 4.5 g/l glucose, supplemented 10% fetal bovine serum, 50 U/ml penicillin and streptomycin, 100 μg/ml Normocin, and 2 mM L-glutamine, purchased from Thermo Fisher, Waltham, Mass.

E. coli LPS [6] = assay: Displacement of LPS from binding to BODIPY TR cadaverine (Tables 3, 9, 12, 13); settings: 0.63 mM; E. coli LPS 15 μg/ml
TLR5 = molecular target: T3, TLR5 (Homo sapiens, UniProt O60602); assay: TLR5-NFkB-SEAP reporter gene assay in HEK 293T cells; type: cell-based
T3 construct: host or cells: human HEK 293T cells
Experimental: The cell line was named as TLR5-NFkB-SEAP.
S. subtilis and S. aureus flagellin were added at a range of concentration from 0.97 ng to 1 μg/ml. […]

T3 sequence (O60602 21-858): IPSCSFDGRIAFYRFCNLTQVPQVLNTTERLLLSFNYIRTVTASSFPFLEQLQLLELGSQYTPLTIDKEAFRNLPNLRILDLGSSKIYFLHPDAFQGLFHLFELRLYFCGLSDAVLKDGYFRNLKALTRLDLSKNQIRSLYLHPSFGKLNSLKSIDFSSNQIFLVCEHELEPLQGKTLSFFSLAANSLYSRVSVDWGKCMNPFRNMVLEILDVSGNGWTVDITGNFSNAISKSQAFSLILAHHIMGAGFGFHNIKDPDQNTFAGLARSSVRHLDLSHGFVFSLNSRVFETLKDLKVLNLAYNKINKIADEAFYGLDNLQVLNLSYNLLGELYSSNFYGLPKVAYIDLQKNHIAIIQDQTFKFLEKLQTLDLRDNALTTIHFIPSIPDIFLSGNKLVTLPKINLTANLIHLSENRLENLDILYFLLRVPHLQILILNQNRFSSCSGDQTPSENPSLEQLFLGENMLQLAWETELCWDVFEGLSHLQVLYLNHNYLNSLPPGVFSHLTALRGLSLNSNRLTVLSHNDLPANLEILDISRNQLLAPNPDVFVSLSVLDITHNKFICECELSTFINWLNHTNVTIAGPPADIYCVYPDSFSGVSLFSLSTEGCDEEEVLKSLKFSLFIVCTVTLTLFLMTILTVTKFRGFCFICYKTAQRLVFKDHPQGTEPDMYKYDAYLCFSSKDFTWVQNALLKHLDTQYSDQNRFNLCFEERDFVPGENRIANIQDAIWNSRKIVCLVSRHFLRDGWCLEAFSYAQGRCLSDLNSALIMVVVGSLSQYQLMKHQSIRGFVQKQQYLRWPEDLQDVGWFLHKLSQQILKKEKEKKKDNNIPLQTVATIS
T1 sequence (O60603 21-784): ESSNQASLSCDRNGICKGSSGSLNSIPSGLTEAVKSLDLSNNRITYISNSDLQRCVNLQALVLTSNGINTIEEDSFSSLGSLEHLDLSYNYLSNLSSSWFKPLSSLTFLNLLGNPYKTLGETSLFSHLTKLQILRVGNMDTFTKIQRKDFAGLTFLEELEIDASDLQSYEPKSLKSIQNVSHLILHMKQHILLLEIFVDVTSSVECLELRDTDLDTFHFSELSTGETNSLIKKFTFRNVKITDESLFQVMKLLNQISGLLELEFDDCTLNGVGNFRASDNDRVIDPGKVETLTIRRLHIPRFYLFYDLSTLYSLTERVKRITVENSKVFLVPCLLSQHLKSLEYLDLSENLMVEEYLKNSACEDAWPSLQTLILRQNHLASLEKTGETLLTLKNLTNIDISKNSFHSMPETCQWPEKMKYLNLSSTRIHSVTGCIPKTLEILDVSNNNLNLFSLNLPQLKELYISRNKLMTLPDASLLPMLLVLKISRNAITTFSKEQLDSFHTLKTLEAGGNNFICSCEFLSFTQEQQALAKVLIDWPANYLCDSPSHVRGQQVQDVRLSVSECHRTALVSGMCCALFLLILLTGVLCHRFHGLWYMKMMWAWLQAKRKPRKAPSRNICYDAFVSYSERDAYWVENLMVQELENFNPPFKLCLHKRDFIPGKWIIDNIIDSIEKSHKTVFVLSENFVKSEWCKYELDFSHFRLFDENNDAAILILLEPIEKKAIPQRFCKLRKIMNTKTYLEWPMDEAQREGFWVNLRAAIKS

## NC(=O)NCCC[C@H](N)C(=O)O [Citrulline]
THP-1 cells
  effect on P. gingivalis LPS 1690 stimulated proinflammatory cytokine production (IL-6, TNF-α, IL-12p70, IL-10, IL-2, IFN-r, IL-1β): inhibited

## [F][Sn][F] [Tin (II) fluoride]
P. gingivalis LPS 1690
  Inhibition of LAL activity %: 60% and 49%
E. coli LPS [1]
  Inhibition of LAL activity %: 92% and 87%
TLR2
  level of P. gingivalis induction of TLR-2: decreased
NFkB-SEAP reporter gene
  expression of the NFKB-SEAP reporter gene by LPS and LTA in THP-1 dual cells: inhibited
[2]
  luciferase production in THP-1 dual cells stimulated by E. coli LPS: inhibited
Human primary monocytes; 100 ng E. coli LPS or P. gingivalis LPS 1690, 24 hours
  cytokine production stimulated by LPS in human primary monocytes: inhibited
Human primary monocytes; dose-dependent
  suppression of LPS on IL-8 production in human primary monocytes: reversed
E. coli LPS [3]
  binding to E. coli LPS (MALDI-TOF): binds to E. coli LPS
TLR4 [4]; 3.2 mM
  reduction of P. gingivalis LPS activation on the TLR4 reporter system: about 50%
TLR4 [4]; […]
  reduction of P. gingivalis LPS activation on the TLR4 reporter system: about 50%
TLR4 [4]; stannous 500 uM or higher, 100 ng/ml E. coli LPS
  level of E. coli induction of TLR-4: decreased
TLR4 [5]
  fluorescence intensity of labeled LPS on HEK-Blue-hTLR4 cells: reduced fluorescence intensity significantly
TLR4 [5]; 500 μM
  % of control: 64.5%
TLR4 [5]; 500 μM, Control 1027
  Average fluorescence intensity (FI): 662
E. coli LPS [6]
  Displacement % of LPS from binding to BODIPY TR cadaverine: 12.69%

## Flagellin from B. subtilis: flagellin from B. subtilis
TLR5; at 5 hours
  EC50 of flagellin on TLR5: 0.02 ng/mL
TLR5; at 23 hours
  EC50 of flagellin on TLR5: 0.014 ng/mL
